Source: patent US20180292376A1, “DIFFUSION CELL TESTING METHODS CONTAINING BIPHASIC RECEPTOR FLUIDS” (BUFFERAD Illinois Inc. d/b/a Zyleris PharmaTech, Inc., priority 2017, published 2018)
Several values for one entry are separate records, joined by “and”; a condition that tells them apart may be missing. Equal entries are not always repeated.

Test: In vitro release testing (IVRT), static vertical diffusion cell, synthetic membrane, UV-VIS analysis
Type: physicochemical
Conditions: for amount of xylene cyanol released into the water phase / release of Xylene Cyanol into the receptor fluid: ointment
Procedure: In Vitro Release Testing Method.
Release of pharmaceutically active compounds from semi-solid dosage forms was evaluated in an in vitro model of static vertical diffusion cell using a synthetic membrane model. […] The samples were analyzed using a UV-VIS spectrometer. […]
Test time points: 0, 2, 4, 6, 8, and 10 hours. Each test was conducted in four replicates (N=4). Square root of test time points: 0, 1.41, 2.00, 2.45, 2.83, and 3.16.
Membrane: Polypropylene (pore size: 0.45 micron).
Static vertical diffusion cell parameters: Area of the membrane diffusion area: 0.95 square centimeters.
Dosing level: infinite dose at about 3.0 milliliter of the semi-solid dosage form.
Static vertical diffusion cell consists of a donor and receptor compartment separated by a synthetic membrane. The dosing compartment was for the dosed semi-solid dosage form. […] Before dosing, the diffusion cell was pre-incubated at 32° C. for about 20 to 45 minutes. The t=0 samples were taken after the incubation period prior to dosing.
During the experiment, the receptor fluid was in intimate contact with the membrane through a mixing mechanism, such as, e.g., magnetic stirring bar, or orbit shaker, and maintained at 32° C. using a heating mechanism, such as, e.g., dry heat block, or circulating water bath. At each time point, entire content of the receptor fluid was collected and replaced with a fresh batch pre-incubated at 32° C.
An ointment dosage form was prepared as an example of the semi-solid dosage form. Petrolatum was heated to about 50 to 70° C. while mixing. Xylene Cyanol was added to the heated petrolatum while heating and mixing. The mixture was mixed until uniform. Then, the mixture was slowly cooled to room temperature while mixing to yield the ointment formulation.

amount of xylene cyanol released (0.5% Xylene Cyanol in Petrolatum, infinite dose, biphasic receptor fluid: 1-Octanol:H2O 1:1 v:v, square root of time (hr) 0.00 (0 h, prior to dosing)): 0.0000 mcg/cm2
amount of xylene cyanol released (0.5% Xylene Cyanol in Petrolatum, infinite dose, biphasic receptor fluid: 1-Octanol:PBS Buffer pH 7.4 1:1 v:v, square root of time 0.00 (0 h, prior to dosing)): 0.0000 mcg/cm2
Slope - Average (0.5% Xylene Cyanol in Petrolatum, infinite dose, receptor fluid: 1-Octanol:H2O 1:1 v:v, N=4 runs): 2.2026 mcg/cm2/h^0.5
Slope - Average (0.5% Xylene Cyanol in Petrolatum, infinite dose, receptor fluid: 1-Octanol:PBS Buffer pH 7.4 1:1 v:v): 1.0412 mcg/cm2/h^0.5
amount of xylene cyanol released (0.5% Xylene Cyanol in Petrolatum, infinite dose, receptor fluid: 1-Octanol, square root of time (hr) 0.00 (0 h, prior to dosing)): BDL
amount of xylene cyanol released (0.5% Xylene Cyanol in Petrolatum, infinite dose, receptor fluid: 1-Octanol, square root of time (hr) 1.41 (2 h)): BDL
amount of xylene cyanol released (0.5% Xylene Cyanol in Petrolatum, infinite dose, receptor fluid: 1-Octanol, square root of time (hr) 2.00 (4 h)): BDL
amount of xylene cyanol released (0.5% Xylene Cyanol in Petrolatum, infinite dose, receptor fluid: 1-Octanol, square root of time (hr) 2.45 (6 h)): BDL
amount of xylene cyanol released (0.5% Xylene Cyanol in Petrolatum, infinite dose, receptor fluid: 1-Octanol, square root of time (hr) 2.83 (8 h)): BDL
amount of xylene cyanol released (0.5% Xylene Cyanol in Petrolatum, infinite dose, receptor fluid: 1-Octanol, square root of time (hr) 3.16 (10 h)): BDL
amount of xylene cyanol released (0.5% Xylene Cyanol in Petrolatum, infinite dose, receptor fluid: 1-octanol:ethanol 50:50 v:v, square root of time (hr) 0.00 (0 h, prior to dosing)): BDL
amount of xylene cyanol released (0.5% Xylene Cyanol in Petrolatum, infinite dose, receptor fluid: 1-octanol:ethanol 50:50 v:v, square root of time (hr) 1.41 (2 h)): BDL
amount of xylene cyanol released (0.5% Xylene Cyanol in Petrolatum, infinite dose, receptor fluid: 1-octanol:ethanol 50:50 v:v, square root of time (hr) 2.00 (4 h)): BDL
amount of xylene cyanol released (0.5% Xylene Cyanol in Petrolatum, infinite dose, receptor fluid: 1-octanol:ethanol 50:50 v:v, square root of time (hr) 2.45 (6 h)): BDL
amount of xylene cyanol released (0.5% Xylene Cyanol in Petrolatum, infinite dose, receptor fluid: 1-octanol:ethanol 50:50 v:v, square root of time (hr) 2.83 (8 h)): BDL
amount of xylene cyanol released (0.5% Xylene Cyanol in Petrolatum, infinite dose, receptor fluid: 1-octanol:ethanol 50:50 v:v, square root of time (hr) 3.16 (10 h)): BDL
amount of xylene cyanol released (0.5% Xylene Cyanol in Petrolatum, infinite dose, receptor fluid: Isopropyl alcohol:water 50:50 v:v, square root of time (hr) 0.00 (0 h, prior to dosing)): BDL
amount of xylene cyanol released (0.5% Xylene Cyanol in Petrolatum, infinite dose, receptor fluid: Isopropyl alcohol:water 50:50 v:v, square root of time (hr) 1.41 (2 h)): BDL
amount of xylene cyanol released (0.5% Xylene Cyanol in Petrolatum, infinite dose, receptor fluid: Isopropyl alcohol:water 50:50 v:v, square root of time (hr) 2.00 (4 h)): BDL
amount of xylene cyanol released (0.5% Xylene Cyanol in Petrolatum, infinite dose, receptor fluid: Isopropyl alcohol:water 50:50 v:v, square root of time (hr) 2.45 (6 h)): BDL
amount of xylene cyanol released (0.5% Xylene Cyanol in Petrolatum, infinite dose, receptor fluid: Isopropyl alcohol:water 50:50 v:v, square root of time (hr) 2.83 (8 h)): BDL
amount of xylene cyanol released (0.5% Xylene Cyanol in Petrolatum, infinite dose, receptor fluid: Isopropyl alcohol:water 50:50 v:v, square root of time (hr) 3.16 (10 h)): BDL
amount of xylene cyanol released (0.5% Xylene Cyanol in Petrolatum, infinite dose, receptor fluid: dimethyl sulfoxide:ethanol 50:50 v:v, square root of time (hr) 0.00 (0 h, prior to dosing)): BDL
amount of xylene cyanol released (0.5% Xylene Cyanol in Petrolatum, infinite dose, receptor fluid: dimethyl sulfoxide:ethanol 50:50 v:v, square root of time (hr) 1.41 (2 h)): BDL
amount of xylene cyanol released (0.5% Xylene Cyanol in Petrolatum, infinite dose, receptor fluid: dimethyl sulfoxide:ethanol 50:50 v:v, square root of time (hr) 2.00 (4 h)): BDL
amount of xylene cyanol released (0.5% Xylene Cyanol in Petrolatum, infinite dose, receptor fluid: dimethyl sulfoxide:ethanol 50:50 v:v, square root of time (hr) 2.45 (6 h)): BDL
amount of xylene cyanol released (0.5% Xylene Cyanol in Petrolatum, infinite dose, receptor fluid: dimethyl sulfoxide:ethanol 50:50 v:v, square root of time (hr) 2.83 (8 h)): BDL
amount of xylene cyanol released (0.5% Xylene Cyanol in Petrolatum, infinite dose, receptor fluid: dimethyl sulfoxide:ethanol 50:50 v:v, square root of time (hr) 3.16 (10 h)): BDL
amount of xylene cyanol released (0.5% Xylene Cyanol in Petrolatum, infinite dose, receptor fluid: dimethyl sulfoxide:isopropyl alcohol:water 30:30:40 v:v:v, square root of time (hr) 0.00 (0 h, prior to dosing)): BDL
amount of xylene cyanol released (0.5% Xylene Cyanol in Petrolatum, infinite dose, receptor fluid: dimethyl sulfoxide:isopropyl alcohol:water 30:30:40 v:v:v, square root of time (hr) 1.41 (2 h)): BDL
amount of xylene cyanol released (0.5% Xylene Cyanol in Petrolatum, infinite dose, receptor fluid: dimethyl sulfoxide:isopropyl alcohol:water 30:30:40 v:v:v, square root of time (hr) 2.00 (4 h)): BDL
amount of xylene cyanol released (0.5% Xylene Cyanol in Petrolatum, infinite dose, receptor fluid: dimethyl sulfoxide:isopropyl alcohol:water 30:30:40 v:v:v, square root of time (hr) 2.45 (6 h)): BDL
amount of xylene cyanol released (0.5% Xylene Cyanol in Petrolatum, infinite dose, receptor fluid: dimethyl sulfoxide:isopropyl alcohol:water 30:30:40 v:v:v, square root of time (hr) 2.83 (8 h)): BDL
amount of xylene cyanol released (0.5% Xylene Cyanol in Petrolatum, infinite dose, receptor fluid: dimethyl sulfoxide:isopropyl alcohol:water 30:30:40 v:v:v, square root of time (hr) 3.16 (10 h)): BDL
amount of xylene cyanol released (0.5% Xylene Cyanol in Petrolatum, infinite dose, receptor fluid: isopropyl alcohol, square root of time (hr) 0.00 (0 h, prior to dosing)): BDL
amount of xylene cyanol released (0.5% Xylene Cyanol in Petrolatum, infinite dose, receptor fluid: isopropyl alcohol, square root of time (hr) 1.41 (2 h)): BDL
amount of xylene cyanol released (0.5% Xylene Cyanol in Petrolatum, infinite dose, receptor fluid: isopropyl alcohol, square root of time (hr) 2.00 (4 h)): BDL
amount of xylene cyanol released (0.5% Xylene Cyanol in Petrolatum, infinite dose, receptor fluid: isopropyl alcohol, square root of time (hr) 2.45 (6 h)): BDL
amount of xylene cyanol released (0.5% Xylene Cyanol in Petrolatum, infinite dose, receptor fluid: isopropyl alcohol, square root of time (hr) 2.83 (8 h)): BDL
amount of xylene cyanol released (0.5% Xylene Cyanol in Petrolatum, infinite dose, receptor fluid: isopropyl alcohol, square root of time (hr) 3.16 (10 h)): BDL
Slope (release rate) (0.5% Xylene Cyanol in Petrolatum, infinite dose, receptor fluid: water, amount released vs square root of time): BDL
amount of xylene cyanol released (0.5% Xylene Cyanol in Petrolatum, infinite dose, receptor fluid: water, square root of time (hr) 0.00 (0 h, prior to dosing)): BDL
amount of xylene cyanol released (0.5% Xylene Cyanol in Petrolatum, infinite dose, receptor fluid: water, square root of time (hr) 1.41 (2 h)): BDL
amount of xylene cyanol released (0.5% Xylene Cyanol in Petrolatum, infinite dose, receptor fluid: water, square root of time (hr) 2.00 (4 h)): BDL
amount of xylene cyanol released (0.5% Xylene Cyanol in Petrolatum, infinite dose, receptor fluid: water, square root of time (hr) 2.45 (6 h)): BDL
amount of xylene cyanol released (0.5% Xylene Cyanol in Petrolatum, infinite dose, receptor fluid: water, square root of time (hr) 2.83 (8 h)): BDL
amount of xylene cyanol released (0.5% Xylene Cyanol in Petrolatum, infinite dose, receptor fluid: water, square root of time (hr) 3.16 (10 h)): BDL
amount of xylene cyanol released into the water phase (biphasic receptor fluid 1-butanol:1-octanol:water 20:30:50 v:v:v): high amount
amount of xylene cyanol released into the water phase (biphasic receptor fluid 1-hexanol:1-octanol:water 25:25:50 v:v:v): high amount
amount of xylene cyanol released into the water phase (biphasic receptor fluid 1-hexanol:water 50:50 v:v): high amount
amount of xylene cyanol released into the water phase (biphasic receptor fluid 1-octanol:PEG 400:water 40:20:40 v:v:v): higher amount
amount of xylene cyanol released into the water phase (biphasic receptor fluid 1-octanol:ethanol:water 40:20:40 v:v:v): higher amount
amount of xylene cyanol released into the water phase (biphasic receptor fluid 1-octanol:glycerin:water 40:20:40 v:v:v): higher amount
amount of xylene cyanol released into the water phase (biphasic receptor fluid 1-octanol:isopropanol:water 40:20:40 v:v:v): higher amount
amount of xylene cyanol released into the water phase (biphasic receptor fluid 1-octanol:propylene glycol:water 40:20:40 v:v:v): higher amount
release of Xylene Cyanol into the receptor fluid (one-phase receptor fluid: 1-octanol): no release
release of Xylene Cyanol into the receptor fluid (one-phase receptor fluid: 1-octanol:ethanol 50:50 v:v): no release
release of Xylene Cyanol into the receptor fluid (one-phase receptor fluid: dimethyl sulfoxide:ethanol 50:50 v:v): no release
release of Xylene Cyanol into the receptor fluid (one-phase receptor fluid: dimethyl sulfoxide:isopropyl alcohol:water 30:30:40 v:v:v): no release
release of Xylene Cyanol into the receptor fluid (one-phase receptor fluid: isopropyl alcohol): no release
release of Xylene Cyanol into the receptor fluid (one-phase receptor fluid: isopropyl alcohol:water 50 to 50 in volume): no release
release of Xylene Cyanol into the receptor fluid (one-phase receptor fluid: water): no release
Structure (SMILES): CCN=C1C=CC(=C(c2ccc(NCC)c(C)c2)c2ccc(S(=O)(=O)[O-])cc2S(=O)(=O)O)C=C1C.[Na+] [Xylene Cyanol]
amount of xylene cyanol released (0.5% Xylene Cyanol in Petrolatum, infinite dose, biphasic receptor fluid: 1-Octanol:H2O 1:1 v:v, square root of time (hr) 2.00 (4 h)): 1.2143 mcg/cm2 and 1.9575 mcg/cm2 and 1.4206 mcg/cm2 and 1.4438 mcg/cm2
amount of xylene cyanol released (0.5% Xylene Cyanol in Petrolatum, infinite dose, biphasic receptor fluid: 1-Octanol:H2O 1:1 v:v, square root of time (hr) 2.45 (6 h)): 2.2025 mcg/cm2 and 3.0973 mcg/cm2 and 2.5204 mcg/cm2 and 2.5436 mcg/cm2
amount of xylene cyanol released (0.5% Xylene Cyanol in Petrolatum, infinite dose, biphasic receptor fluid: 1-Octanol:H2O 1:1 v:v, square root of time (hr) 2.83 (8 h)): 3.1044 mcg/cm2 and 4.1192 mcg/cm2 and 3.3865 mcg/cm2 and 3.7213 mcg/cm2
amount of xylene cyanol released (0.5% Xylene Cyanol in Petrolatum, infinite dose, biphasic receptor fluid: 1-Octanol:H2O 1:1 v:v, square root of time (hr) 3.16 (10 h)): 3.8674 mcg/cm2 and 4.8589 mcg/cm2 and 4.2884 mcg/cm2 and 4.5853 mcg/cm2
amount of xylene cyanol released (0.5% Xylene Cyanol in Petrolatum, infinite dose, biphasic receptor fluid: 1-Octanol:PBS Buffer pH 7.4 1:1 v:v, square root of time 2.00 (4 h)): 0.3389 mcg/cm2 and 0.4105 mcg/cm2 and 0.5179 mcg/cm2 and 0.4295 mcg/cm2
amount of xylene cyanol released (0.5% Xylene Cyanol in Petrolatum, infinite dose, biphasic receptor fluid: 1-Octanol:PBS Buffer pH 7.4 1:1 v:v, square root of time 2.45 (6 h)): 1.2295 mcg/cm2 and 1.3179 mcg/cm2 and 0.8863 mcg/cm2 and 0.9032 mcg/cm2
amount of xylene cyanol released (0.5% Xylene Cyanol in Petrolatum, infinite dose, biphasic receptor fluid: 1-Octanol:PBS Buffer pH 7.4 1:1 v:v, square root of time 2.83 (8 h)): 1.3579 mcg/cm2 and 1.8147 mcg/cm2 and 1.4400 mcg/cm2 and 1.5937 mcg/cm2
amount of xylene cyanol released (0.5% Xylene Cyanol in Petrolatum, infinite dose, biphasic receptor fluid: 1-Octanol:PBS Buffer pH 7.4 1:1 v:v, square root of time 3.16 (10 h)): 1.8884 mcg/cm2 and 2.4316 mcg/cm2 and 1.7305 mcg/cm2 and 1.9768 mcg/cm2
